The source of these data is patent publication US9867833B2, “Serine/threonine kinase inhibitors” (GENENTECH, INC., priority 2013, dated 2018).

Where only a bound is given, the exact number is not on record here.

Sequence of human ERK-2 (Mitogen Activated Kinase 1) (P28482 8-360): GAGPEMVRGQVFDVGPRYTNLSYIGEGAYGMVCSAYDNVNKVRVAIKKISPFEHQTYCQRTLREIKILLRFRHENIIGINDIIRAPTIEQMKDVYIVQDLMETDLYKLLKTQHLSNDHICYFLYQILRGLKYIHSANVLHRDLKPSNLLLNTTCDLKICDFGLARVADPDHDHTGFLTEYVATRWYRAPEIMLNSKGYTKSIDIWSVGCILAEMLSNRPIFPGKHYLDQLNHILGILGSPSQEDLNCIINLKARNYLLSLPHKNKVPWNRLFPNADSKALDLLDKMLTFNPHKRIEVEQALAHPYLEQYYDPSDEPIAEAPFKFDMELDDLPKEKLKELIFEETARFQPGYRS

The target of the experiment is human ERK-2 (Mitogen Activated Kinase 1) (Homo sapiens (Human), UniProt P28482). The experiment is described as follows: ERK-2 Enzymatic Assay. It counts as biochemical. Particulars: human ERK-2 enzyme 5 nM, 25 μM ATP, S/T17 peptide substrate; isomer = configuration of CR2R3. Put shortly:
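Recombinant human ERK-2 (aa 8-360, N-terminal 6-His, E. coli) with 3-fold serially diluted compound. Per-well rates from linear fits converted to percent of control; IC50 by four-parameter fit.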
What is called IC50 is the concentration at which inhibition is half-maximal. Higher therefore signals weaker potency. As to `CC(C)C[C@@H]1c2nnc3cc(-c4ccnc(Nc5ccnn5C)n4)cc(n23)NC(=O)N1C` [Compound I-23, (R)-9-isobutyl-8-methyl-4-(2-((1-methyl-1H-pyrazol-5-yl)amino)pyrimidin-4-yl)-8,9-dihydro-1,2,2a^1,6,8-pentaazabenzo[cd]azulen-7(6H)-one], the IC50 is 1.12 nM. The same measure for `CC(C)C[C@H]1NC(=O)N(C)c2cc(-c3ccnc(Nc4ccnn4C)c3)cc3nnc1n23` [Compound I-25, (R)-9-isobutyl-6-methyl-4-(2-((1-methyl-1H-pyrazol-5-yl)amino)pyridin-4-yl)-8,9-dihydro-1,2,2a^1,6,8-pentaazabenzo[cd]azulen-7(6H)-one]: 4.28 nM.

`COc1ccc(C[C@H]2NC(=O)N(C)c3cc(-c4ccnc(Nc5ccnn5C)c4)cc4nnc2n34)cc1` [Compound I-26, (R)-9-(4-methoxybenzyl)-6-methyl-4-(2-((1-methyl-1H-pyrazol-5-yl)amino)pyridin-4-yl)-8,9-dihydro-1,2,2a^1,6,8-pentaazabenzo[cd]azulen-7(6H)-one] returned an IC50 of 0.39 nM.

The compound `CN1C(=O)N(Cc2ccccc2)c2nnc3cc(-c4ccnc(Nc5ccnn5C)n4)cc1n23` [Compound I-28, 3-benzyl-5-methyl-7-(2-((1-methyl-1H-pyrazol-5-yl)amino)pyrimidin-4-yl)-3H-1,2,2a^1,3,5-pentaazaacenaphthylen-4(5H)-one] gave an IC50 of 0.02 nM. The same measure for `CN1C(=O)N[C@H](Cc2cccc(F)c2)c2nnc3cc(-c4ccnc(Nc5ccnn5C)n4)cc1n23` [Compound I-39, (R)-9-(3-fluorobenzyl)-6-methyl-4-(2-((1-methyl-1H-pyrazol-5-yl)amino)pyrimidin-4-yl)-8,9-dihydro-1,2,2a^1,6,8-pentaazabenzo[cd]azulen-7(6H)-one]: 0.215 nM. The same measure for `CN1C(=O)N[C@H](CC2CC2)c2nnc3cc(-c4ccnc(Nc5ccnn5C)n4)cc1n23` [Compound I-51, (R)-9-(cyclopropylmethyl)-6-methyl-4-(2-((1-methyl-1H-pyrazol-5-yl)amino)pyrimidin-4-yl)-8,9-dihydro-1,2,2a^1,6,8-pentaazabenzo[cd]azulen-7(6H)-one]: 2.34 nM; for `Cn1nccc1Nc1nccc(-c2cc3n4c(nnc4c2)C(Cn2cc(C(F)(F)F)cn2)CCO3)n1` (centres unmarked) [Compound I-73, N-(1-methyl-1H-pyrazol-5-yl)-4-(9-((4-(trifluoromethyl)-1H-pyrazol-1-yl)methyl)-8,9-dihydro-7H-6-oxa-1,2,2a^1-triazabenzo[cd]azulen-4-yl)pyrimidin-2-amine]: less than 0.02 nM.

For the compound `CN1C(=O)CC(Cc2ccc(F)cc2)c2nnc3cc(-c4ccnc(Nc5ccnn5C)n4)cc1n23` (centres unmarked) [Compound I-79, 9-(4-fluorobenzyl)-6-methyl-4-(2-((1-methyl-1H-pyrazol-5-yl)amino)pyrimidin-4-yl)-8,9-dihydro-1,2,2a^1,6-tetraazabenzo[cd]azulen-7(6H)-one], the IC50 is 17 nM. With `CN1C(=O)C[C@H](Cc2cccc(Cl)c2)c2nnc3cc(-c4ccnc(Nc5ccnn5C)n4)cc1n23` [Compound I-80, (S)-9-(3-chlorobenzyl)-6-methyl-4-(2-((1-methyl-1H-pyrazol-5-yl)amino)pyrimidin-4-yl)-8,9-dihydro-1,2,2a^1,6-tetraazabenzo[cd]azulen-7(6H)-one], the IC50 is less than 0.02 nM.

`COc1cccc(CC2COc3cc(-c4ccnc(Nc5ccnn5C)n4)cc4nnc2n34)c1` (centres unmarked) [Compound I-81, 4-(3-(3-methoxybenzyl)-3,4-dihydro-5-oxa-1,2,2a^1-triazaacenaphthylen-7-yl)-N-(1-methyl-1H-pyrazol-5-yl)pyrimidin-2-amine] came in with an IC50 of less than 0.02 nM. The same measure for `Cn1nccc1Nc1cc(-c2cc3n4c(nnc4c2)C(Cc2ccc(F)c(Cl)c2)CO3)ccn1` (centres unmarked) [Compound I-83, 4-(3-(3-Chloro-4-fluorobenzyl)-3,4-dihydro-5-oxa-1,2,2a^1-triazaacenaphthylen-7-yl)-N-(1-methyl-1H-pyrazol-5-yl)pyridin-2-amine]: 0.111 nM. The same measure for `CN1C(=O)C[C@@H](Cc2ccc(Cl)cn2)c2nnc3cc(-c4ccnc(Nc5ccnn5C)c4)cc1n23` [Compound I-94, (R)-9-((5-chloropyridin-2-yl)methyl)-6-methyl-4-(2-((1-methyl-1H-pyrazol-5-yl)amino)pyridin-4-yl)-8,9-dihydro-1,2,2a^1,6-tetraazabenzo[cd]azulen-7(6H)-one]: 598 nM.

`Cn1nccc1Nc1nccc(-c2cc3n4c(nnc4c2)C(C2CC2)CO3)n1` (centres unmarked) [Compound I-95, 4-(3-cyclopropyl-3,4-dihydro-5-oxa-1,2,2a^1-triazaacenaphthylen-7-yl)-N-(1-methyl-1H-pyrazol-5-yl)pyrimidin-2-amine] had an IC50 of 0.751 nM. Take `Cn1nccc1Nc1cc(-c2cc3n4c(nnc4c2)C(Cc2cccc(Cl)c2)CO3)ccn1` (centres unmarked) [Compound I-96, 4-(3-(3-chlorobenzyl)-3,4-dihydro-5-oxa-1,2,2a^1-triazaacenaphthylen-7-yl)-N-(1-methyl-1H-pyrazol-5-yl)pyridin-2-amine]: the IC50 was 0.149 nM. The same measure for `CN1C(=O)N(Cc2ccc(Cl)cc2)c2nnc3cc(-c4ccnc(Nc5ccnn5C)n4)cc1n23` [Compound I-98, 3-(4-chlorobenzyl)-5-methyl-7-(2-((1-methyl-1H-pyrazol-5-yl)amino)pyrimidin-4-yl)-3H-1,2,2a^1,3,5-pentaazaacenaphthylen-4(5H)-one]: 0.273 nM.

The compound `CN1C(=O)N(Cc2cc(F)cc(F)c2)c2nnc3cc(-c4ccnc(Nc5ccnn5C)n4)cc1n23` [Compound I-99, 3-(3,5-difluorobenzyl)-5-methyl-7-(2-((1-methyl-1H-pyrazol-5-yl)amino)pyrimidin-4-yl)-3H-1,2,2a^1,3,5-pentaazaacenaphthylen-4(5H)-one] came in with an IC50 of 0.113 nM. The same measure for `CN1C(=O)N(Cc2cccc(Cl)c2)c2nnc3cc(-c4ccnc(Nc5ccnn5C)n4)cc1n23` [Compound I-100, 3-(3-chlorobenzyl)-5-methyl-7-(2-((1-methyl-1H-pyrazol-5-yl)amino)pyrimidin-4-yl)-3H-1,2,2a^1,3,5-pentaazaacenaphthylen-4(5H)-one]: less than 0.02 nM.
